{
  "source": "paper PMC12102759",
  "about": "(Protein Science : A Publication of the Protein Society, 2025)",
  "data": [
    {"test_system": "PABPC1 PABC", "type": "binding, human", "details": "DMS-BM library, bait PABPC1 PABC, prey ATXN2, peptide KSTLNPNAKEFNPRSF; F = wild type, row aa = residue at this position", "values": [
      {"sequence": "KSTLNPNAKEFNPRSF F11K (KSTLNPNAKEKNPRSF)", "DMS-derived PSSM value, position F11": 0.006092},
      {"sequence": "KSTLNPNAKEFNPRSF F11L (KSTLNPNAKELNPRSF)", "DMS-derived PSSM value, position F11": 0},
      {"sequence": "KSTLNPNAKEFNPRSF F11M (KSTLNPNAKEMNPRSF)", "DMS-derived PSSM value, position F11": 0},
      {"sequence": "KSTLNPNAKEFNPRSF F11N (KSTLNPNAKENNPRSF)", "DMS-derived PSSM value, position F11": 0.09626},
      {"sequence": "KSTLNPNAKEFNPRSF F11P (KSTLNPNAKEPNPRSF)", "DMS-derived PSSM value, position F11": 0},
      {"sequence": "KSTLNPNAKEFNPRSF F11Q (KSTLNPNAKEQNPRSF)", "DMS-derived PSSM value, position F11": 0},
      {"sequence": "KSTLNPNAKEFNPRSF F11R (KSTLNPNAKERNPRSF)", "DMS-derived PSSM value, position F11": 0},
      {"sequence": "KSTLNPNAKEFNPRSF F11S (KSTLNPNAKESNPRSF)", "DMS-derived PSSM value, position F11": 0},
      {"sequence": "KSTLNPNAKEFNPRSF F11T (KSTLNPNAKETNPRSF)", "DMS-derived PSSM value, position F11": 0},
      {"sequence": "KSTLNPNAKEFNPRSF F11V (KSTLNPNAKEVNPRSF)", "DMS-derived PSSM value, position F11": 0},
      {"sequence": "KSTLNPNAKEFNPRSF F11W (KSTLNPNAKEWNPRSF)", "DMS-derived PSSM value, position F11": 0.203},
      {"sequence": "KSTLNPNAKEFNPRSF F11Y (KSTLNPNAKEYNPRSF)", "DMS-derived PSSM value, position F11": 0.3016},
      {"sequence": "KSTLNPNAKEFNPRSF F16A (KSTLNPNAKEFNPRSA)", "DMS-derived PSSM value, position F16": 0.08044},
      {"sequence": "KSTLNPNAKEFNPRSF F16D (KSTLNPNAKEFNPRSD)", "DMS-derived PSSM value, position F16": 0.02019},
      {"sequence": "KSTLNPNAKEFNPRSF F16E (KSTLNPNAKEFNPRSE)", "DMS-derived PSSM value, position F16": 0.01536},
      {"sequence": "KSTLNPNAKEFNPRSF F16G (KSTLNPNAKEFNPRSG)", "DMS-derived PSSM value, position F16": 0},
      {"sequence": "KSTLNPNAKEFNPRSF F16H (KSTLNPNAKEFNPRSH)", "DMS-derived PSSM value, position F16": 0.03107},
      {"sequence": "KSTLNPNAKEFNPRSF F16I (KSTLNPNAKEFNPRSI)", "DMS-derived PSSM value, position F16": 0.0559},
      {"sequence": "KSTLNPNAKEFNPRSF F16K (KSTLNPNAKEFNPRSK)", "DMS-derived PSSM value, position F16": 0.01965},
      {"sequence": "KSTLNPNAKEFNPRSF F16L (KSTLNPNAKEFNPRSL)", "DMS-derived PSSM value, position F16": 0.2967},
      {"sequence": "KSTLNPNAKEFNPRSF F16M (KSTLNPNAKEFNPRSM)", "DMS-derived PSSM value, position F16": 0.02916},
      {"sequence": "KSTLNPNAKEFNPRSF F16N (KSTLNPNAKEFNPRSN)", "DMS-derived PSSM value, position F16": 0.04727},
      {"sequence": "KSTLNPNAKEFNPRSF F16P (KSTLNPNAKEFNPRSP)", "DMS-derived PSSM value, position F16": 0.0009324},
      {"sequence": "KSTLNPNAKEFNPRSF F16Q (KSTLNPNAKEFNPRSQ)", "DMS-derived PSSM value, position F16": 0.002875},
      {"sequence": "KSTLNPNAKEFNPRSF F16R (KSTLNPNAKEFNPRSR)", "DMS-derived PSSM value, position F16": 0},
      {"sequence": "KSTLNPNAKEFNPRSF F16S (KSTLNPNAKEFNPRSS)", "DMS-derived PSSM value, position F16": 0.02635},
      {"sequence": "KSTLNPNAKEFNPRSF F16T (KSTLNPNAKEFNPRST)", "DMS-derived PSSM value, position F16": 0.02121},
      {"sequence": "KSTLNPNAKEFNPRSF F16V (KSTLNPNAKEFNPRSV)", "DMS-derived PSSM value, position F16": 0.175},
      {"sequence": "KSTLNPNAKEFNPRSF F16W (KSTLNPNAKEFNPRSW)", "DMS-derived PSSM value, position F16": 0.01686},
      {"sequence": "KSTLNPNAKEFNPRSF F16Y (KSTLNPNAKEFNPRSY)", "DMS-derived PSSM value, position F16": 0.101}
    ]},
    {"test_system": "PABPC1 PABC", "type": "binding, human", "details": "DMS-BM library, bait PABPC1 PABC, prey ATXN2, peptide KSTLNPNAKEFNPRSF; K = wild type, row aa = residue at this position", "values": [
      {"sequence": "KSTLNPNAKEFNPRSF K9A (KSTLNPNAAEFNPRSF)", "DMS-derived PSSM value, position K9": 0.002649},
      {"sequence": "KSTLNPNAKEFNPRSF K9D (KSTLNPNADEFNPRSF)", "DMS-derived PSSM value, position K9": 0.007291},
      {"sequence": "KSTLNPNAKEFNPRSF K9E (KSTLNPNAEEFNPRSF)", "DMS-derived PSSM value, position K9": 0.0298},
      {"sequence": "KSTLNPNAKEFNPRSF K9F (KSTLNPNAFEFNPRSF)", "DMS-derived PSSM value, position K9": 0.02411},
      {"sequence": "KSTLNPNAKEFNPRSF K9G (KSTLNPNAGEFNPRSF)", "DMS-derived PSSM value, position K9": 0.006369},
      {"sequence": "KSTLNPNAKEFNPRSF K9H (KSTLNPNAHEFNPRSF)", "DMS-derived PSSM value, position K9": 0.04428},
      {"sequence": "KSTLNPNAKEFNPRSF K9I (KSTLNPNAIEFNPRSF)", "DMS-derived PSSM value, position K9": 0.4039},
      {"sequence": "KSTLNPNAKEFNPRSF K9L (KSTLNPNALEFNPRSF)", "DMS-derived PSSM value, position K9": 0.07486},
      {"sequence": "KSTLNPNAKEFNPRSF K9M (KSTLNPNAMEFNPRSF)", "DMS-derived PSSM value, position K9": 0.1105},
      {"sequence": "KSTLNPNAKEFNPRSF K9N (KSTLNPNANEFNPRSF)", "DMS-derived PSSM value, position K9": 0.1194},
      {"sequence": "KSTLNPNAKEFNPRSF K9P (KSTLNPNAPEFNPRSF)", "DMS-derived PSSM value, position K9": 0.004179},
      {"sequence": "KSTLNPNAKEFNPRSF K9Q (KSTLNPNAQEFNPRSF)", "DMS-derived PSSM value, position K9": 0.02634},
      {"sequence": "KSTLNPNAKEFNPRSF K9R (KSTLNPNAREFNPRSF)", "DMS-derived PSSM value, position K9": 0.0319}
    ]}
  ]
}
